For two molecules, melting point results are on record in US11535595B2, “Isoquinoline sulfonyl chloride acid addition salts and method of manufacture thereof” (D. WESTERN THERAPEUTICS INSTITUTE, INC., priority 2018, dated 2022).

Molecules are shown by their SMILES.

As to `Cl.O=S(=O)(Cl)c1ccc2cnccc2c1`, the melting point is 102 °C (dec.).

The molecule `c1ccc(CSc2ccc3cnccc3c2)cc1` [compound (4), 6-(benzylthio)isoquinoline] registered a melting point of 80 °C.

One may read the melting point as the temperature, or range, at which the solid turns liquid.
